Results: paper PMC9653173, “Trotabresib (CC-90010) in combination with adjuvant temozolomide or concomitant temozolomide plus radiotherapy in patients with newly diagnosed glioblastoma” (Neuro-Oncology Advances, 2022)

Legend:
CCR1 mRNA = assay: Blood CCR1 mRNA pharmacodynamics; type: in vivo, human
From the text: Plasma samples were collected during the first treatment cycle for investigation of trotabresib pharmacokinetics and pharmacodynamics. Plasma pharmacokinetic parameters assessed included peak plasma concentration (Cmax), time to peak plasma concentration (tmax), area under the plasma concentration–time curve (AUC), and terminal half-life (t½). Pharmacodynamic markers assessed included blood levels of CCR1 and HEXIM1 mRNA, which are established markers of BET inhibitor target engagement.[17],[22],[37],[38]

glioblastoma PDX models = assay: Tumor growth inhibition in glioblastoma patient-derived xenograft models; type: in vivo; conditions: Supplementary Figure S1
From the text: Supplementary Figure 1. Trotabresib-mediated tumor growth inhibition in a glioblastoma patient-derived xenograft with and without TMZ. [picture] ^aTMZ given on days 7–9 and 22–24.

Cn1cc(-c2cc(S(C)(=O)=O)ccc2OCC2CC2)c2ccccc2c1=O [Trotabresib]
Blood CCR1 mRNA expression, lower than at baseline (CCR1 mRNA; RP2D 30 mg, day 4, 2–4 h post-dose, adjuvant and concomitant settings): ≥ 50% | Time to return of CCR1 mRNA expression to baseline levels (CCR1 mRNA; RP2D 30 mg, post-dose in cycle 1): ≤ 168 h | Blood CCR1 mRNA modulation (CCR1 mRNA; trotabresib 15 mg, adjuvant or concomitant cohorts): no decrease in CCR1 expression | Effect on antiproliferative effects of TMZ (glioblastoma PDX models; glioblastoma PDX models): enhances the antiproliferative effects of TMZ | Antitumor activity as a single agent (glioblastoma PDX models; glioblastoma models): has antitumor activity in glioblastoma models as a single agent
